# Molecular target: Guanine deaminase (Oryctolagus cuniculus)
# Test: Compound was tested for its inhibitory effect on rabbit liver guanase
compound,measurement,value
"O=c1cnc2c(ncn2Cc2ccccc2)c(=O)[nH]1 [3-Benzyl-3H-imidazo[4,5-e][1,4]diazepine-6,8-dione]",Ki,227 µM

# Reference: BindingDB's records for doi:10.1016/s0960-894x(98)00672-6 (University of Maryland, 1999)
